“And” between values parts separate entries of the source, which are not always exact repeats. Equal values may be shown once. Numbers after ± are expanded uncertainties.
How the values were obtained:
[1] = DTA
[2] = Molar enthalpy of transition or fusion; settings: DSC
[3] = molar enthalpy of vaporization or sublimation; settings: 298.15 K; Crystal 1; DSC

| Triple point temperature ([1]; Crystal 1) [K] | Triple point temperature ([1]; Crystal 2) [K] | Molar enthalpy of transition or fusion ([2]; Crystal 1) [kcal/mol] | Molar enthalpy of transition or fusion ([2]; Crystal 2) [kcal/mol] | molar enthalpy [3] | Triple point temperature ([1]; Crystal 3) [K] | Molar enthalpy of transition or fusion ([2]; Crystal 3) [kcal/mol] | Structure (SMILES) |
| --- | --- | --- | --- | --- | --- | --- | --- |
| 363.9 ± 13 | 340.5 ± 3.6 | 4.49 ± 0.143 | 0.55 ± 0.143 | 28.5 ± 1.53 kcal/mol | – | – | O=C(O)CCCC(=O)O [1,5-pentanedioic acid] |
| 419 ± 2.8 | – | 8.05 ± 0.239 | – | – | – | – | O=C(O)CCCCC(=O)O [1,6-hexanedioic acid] |
| 368.2 ± 3.2 | 366.3 ± 2.8 | 5.66 ± 0.598 | – | 31.8 ± 1.7 kcal/mol | 337.7 ± 3.2 | 0.359 ± 0.143 | O=C(O)CCCCCC(=O)O [1,7-heptanedioic acid] |
| 413.2 ± 0.5 | 403.6 ± 0.5 | 7.34 ± 0.239 | 2.17 ± 0.0717 | 36.1 ± 1.94 kcal/mol | 355.9 ± 1.6 | 0.478 ± 0.382 | O=C(O)CCCCCCC(=O)O [1,8-octanedioic acid] |
| 372.4 ± 2.4 | 339.8 ± 8.4 | 7.1 ± 0.454 | 0.167 ± 0.143 | 34.5 ± 1.84 kcal/mol | 330.6 ± 0.5 | 0.00239 | O=C(O)CCCCCCCC(=O)O [1,9-nonanedioic acid] |
| 403.9 ± 0.9 | 370.3 ± 0.5 | 11.1 ± 2.39 | 0.0956 ± 0.0478 | – | – | – | O=C(O)CCCCCCCCC(=O)O [1,10-decanedioic acid] |
| 380.1 ± 1.6 | 355.3 ± 0.9 | 9.85 ± 0.789 | 0.382 ± 0.239 | 39.1 kcal/mol and 39.3 kcal/mol | – | – | O=C(O)CCCCCCCCCC(=O)O [1,11-undecanedioic acid] |
| 397.3 ± 0.5 | – | 13.5 ± 0.813 | – | 41.8 ± 2.22 kcal/mol | – | – | O=C(O)CCCCCCCCCCCCC(=O)O [1,12-dodecanedicarboxylic acid] |
| 400.3 ± 1.3 | 387 ± 1 | 11.9 ± 0.574 | -0.0239 ± 0.0956 | 41 ± 2.17 kcal/mol | 359.5 ± 9.6 | 0.0143 ± 0.0359 | O=C(O)CCCCCCCCCCC(=O)O [1,12-dodecanedioic acid] |
| 455.2 ± 2.4 | – | 8.13 ± 0.239 | – | – | – | – | O=C(O)CCC(=O)O [butanedioic acid] |
| 395.4 ± 1.3 | – | 12.5 ± 0.263 | – | – | – | – | O=C(O)CCCCCCCCCCCCCCC(=O)O [hexadecanedioic acid] |
| 386.3 ± 2.8 | – | 11.8 ± 0.239 | – | – | – | – | O=C(O)CCCCCCCCCCCC(=O)O [tridecanedioic acid] |
